Experimental data taken from patent US9005677B2, “Autophagy enhancer for treatment of neurodegenerative diseases” (Macau University of Science and Technology, priority 2013, dated 2015).
“Also recorded” adds a separate entry of the source.

Assays:
[1] = tested on: mutant A53T α-synuclein in doxycycline inducible PC 12 cell line; assay: Clearance of mutant A53T α-synuclein, immunoblotting against myc tag; format: cell-based, rat; conditions: PC 12 cells, 24 hours after doxycycline removal
Procedure: Removal of mutant huntingtin and mutant α-synuclein. PC 12 cells were transfected transiently with EGFP-HDQ74 plasmids for 24 hours using Lipofectamine Plus LTX reagent (Invitrogen) according to the manufacturer's protocol. The transfected cells were then treated with Onjisaponin B for 24 hours. The removal of mutant huntingtin, EGFP-HDQ74, was then quantitated by immunoblotting with antibody against EGFP. To measure the clearance of α-synuclein in cellular model, the overexpression of mutant A53T α-synuclein was first induced by the addition of doxycycline (1 μg/ml) (Sigma) for 24 hours, by using the doxycycline inducible PC 12 cell line transfected with A53T α-synuclein plasmid. The expression of mutant A53T α-synuclein was then switched off by removing doxycycline from medium. Cells were then incubated with Onjisaponin B for a further 24 hours. The clearance of mutant α-synuclein was then measured by immunoblotting with antibody against myc tag.

[2] = tested on: PC-12 cells; assay: MTT cytotoxicity assay; format: cell-based, rat; conditions: 0.039-100 μmol/L, 48 hours
Procedure: (§1) Cell culture and cytotoxicity assay: The test compound of Onjisaponin B was dissolved in DMSO at a final concentration of 100 mmol/L and stored at −20° C. Cytotoxicity was assessed using the 3-(4,5-dimethylthiazol-2-yl) -2,5-diphenyltetrazolium bromide assay as described previously. PC-12, 4000 cells were seeded on 96-well plates per well. After overnight pre-incubation, the cells were exposed to different concentrations of Onjisaponin B (0.039-100 μmol/L) for 2 days. Subsequently, 10 μL of MTT reagents was added to each well and incubated at 37° C. for 4 hours followed by the addition of 100 μL solubilization buffer (10% SDS in 0.01 mol/L HCl) and overnight incubation. Absorbance at 585 nm was determined from each well the next day. For cell viability assay measured by crystal violet staining, PC-12 cells were incubated in 35 mm disc followed by the addition of Onjisaponin B at the indicated concentrations for 24 hours. The cells were then incubated with crystal violet for 10 minutes followed by a ddH2O wash. […] Cell viability was quantified by dissolving the stained cells in 10% acetic acid (200 μL/well). The colorimetric reading of the solute mixture was then determined by spectrophotometer at OD 560 nm The percentage of cell viability was calculated using the following formula: Cell viability (%)=Cells number treated/Cells number DMSO control×100. […]

[3] = tested on: Atg7-knockout mouse embryonic fibroblasts; assay: GFP-LC3 puncta in Atg7 deficient MEFs; format: cell-based
Procedure: (§2) Quantification of autophagy GFP-LC3 Puncta in Atg7 wild type and deficient MEFs. GFP-LC3 puncta formation was quantified as described previously. In brief, both Atg7 wild-type and deficient mouse embryonic fibroblasts (MEFs) grown on coverslips in a 6-well plate were treated with indicated concentrations of Onjisaponin B. The cells were then fixed in 4% paraformaldehyde for 20 minutes at room temperature and then rinsed with PBS. Slides were mounted with FluorSave™ mounting media (Calbiochem, San Diego, Calif.) and examined by fluorescence microscopy. The number of GFP-positive cells with GFP-LC3 puncta formation was examined under the Nikon ECLIPSE 80i microscope. Representative images were captured with CCD digital camera Spot RT3™ (Diagnostic Instruments, Inc., Melville, N.Y.). To quantify for autophagy, the percentage of cells with punctate GFP-LC3 fluorescence was calculated by counting the number of the cells with punctate GFP-LC3 fluorescence in GFP-positive cells. A minimum of 150 cells from 3 randomly selected fields was scored.

[4] = tested on: PC-12 cells transfected with mutant huntingtin EGFP-HDQ74; assay: MTT viability of PC-12 cells expressing mutant huntingtin; format: cell-based, rat; conditions: 25 μmol/L, 2 days
Procedure: Cell cytotoxicity assay: Cytotoxicity was assessed using the 344,5-dimethylthiazol-2-yl)-2,5-diphenyltetrazolium bromide assay as described previously. PC-12 cells were transfected with or without mutant huntingtin EGFP-HDQ74 for 24 h. The PC-12 cells were then seeded on 96-well plates with 4000 cells per well and then exposed to the indicated concentrations of Onjisaponin B (25 μmol/L) for 2 days. Subsequently, 10 μL of MTT reagents was added to each well and incubated at 37° C. for 4 hours, followed by the addition of 100 μL solubilization buffer (10% SDS in 0.01 mol/L HCl) and overnight incubation. Absorbance at 585 nm was determined from each well on the next day. The percentage of cell viability was calculated using the following formula: Cell viability (%)=Cells number treated/Cells number DMSO control×100. Data was obtained from three independent experiments.

[5] = tested on: PC-12 cells; assay: Cell viability by crystal violet staining; format: cell-based, rat; conditions: 24 hours
Procedure: as §1

[6] = tested on: P-AMPK and P-p70S6K in PC12 cells; assay: Western blot of mTOR signaling marker proteins; format: cell-based, rat
Procedure: Detection of mTOR signaling marker proteins. PC12 cells treated with indicated time and concentrations of Onjisaponin B were harvested and lysed in RIPA buffer (Cell Signaling). The cell lysates were then resolved by SDS-PAGE. After electrophoresis, the proteins from SDS-PAGE were transferred to nitrocellulose membrane which was then blocked with 5% non-fat dried milk for 60 minutes. The membrane was then incubated with P-p70S6K, p70S6K, P-AMPK, AMPK primary antibodies (1:1000) in TBST overnight at 4° C. respectively. After that, the membrane was further incubated with HRP-conjugated secondary antibodies for 60 minutes. Finally, protein bands were visualized by using the ECL Western Blotting Detection Reagents (Invitrogen).

[7] = tested on: Atg7 wild-type mouse embryonic fibroblasts; assay: GFP-LC3 puncta in Atg7 wild-type MEFs; format: cell-based
Procedure: as §2

[8] = tested on: LC3-II conversion in PC12 cells; assay: Western blot of autophagic marker protein LC3 conversion; format: cell-based
Procedure: Detection of autophagic marker protein LC3 conversion. After drug treatments with or without autophagy inhibitor ([…] E64D and pepstain A), cells were harvested and lysed in RIPA buffer (Cell Signaling Technologies Inc., Beverly, Mass.). The cell lysates were then resolved by SDS-PAGE. After electrophoresis, the proteins from SDS-PAGE were transferred to nitrocellulose membrane which was then blocked with 5% non-fat dried milk for 60 minutes. The membrane was then incubated with LC3 primary antibodies (1:1000) in TBST overnight at 4° C. After that, the membrane was further incubated with HRP-conjugated secondary antibodies for 60 minutes. Finally, protein bands were visualized by using the ECL Western Blotting Detection Reagents (Invitrogen, Paisley, Scotland, UK).

With `COc1ccc(/C=C/C(=O)O[C@@H]2[C@H](O[C@@H]3O[C@@H](C)[C@H](O)[C@@H](O)[C@H]3O)[C@@H](O[C@@H]3O[C@@H](C)[C@H](O[C@@H]4OC[C@@H](O[C@@H]5O[C@H](CO)[C@H](O)[C@H](O)[C@H]5O)[C@H](O)[C@H]4O)[C@@H](O)[C@H]3O)[C@H](OC(=O)[C@]34CCC(C)(C)C[C@H]3C3=CC[C@@H]5[C@@]6(C)C[C@H](O)[C@H](O[C@@H]7O[C@H](CO)[C@@H](O)[C@H](O)[C@H]7O)[C@@](C)(C(=O)O)[C@@H]6CC[C@@]5(C)[C@]3(CO)CC4)O[C@@H]2C)cc1` [Onjisaponin B] the “Clearance of myc-tagged mutant A53T α-synuclein” value [1] was “accelerate the clearance”, the “Cytotoxicity in PC-12 cells (MTT assay)” value [2] was “no significant cytotoxic effect; also recorded: no toxicity observed overtly” and the “GFP-LC3 puncta formation in Atg7-knockout cells” value [3] was “not in Atg7-knockout mouse embryonic fibroblasts”. The “Toxicity in PC-12 cells expressing mutant huntingtin (cell viability, MTT)” value [4] was “reduced toxicity”, the “Morphological damage in PC12 cells (crystal violet assay)” value [5] was “no significant morphological damage” and the “Phosphorylation of AMPK” value ([6]; 25 μM at 8, 16, 24 hour, 3, 6.25, 12.5, 25 μM at 24 hour) was “activate the phosphorylation of AMPK in a time dependent manner”. For the same compound, the p70S6K phosphorylation ([6]; same treatments as AMPK blot) was “concomitant reduction in its downstream p70S6K phosphorylation”, the “GFP-LC3 puncta formation in wild type Atg7 cells” value [7] was “induce GFP-LC3 puncta formation” and the “LC3-II conversion (western blot)” value [8] was “increase of LC3-II conversion”. The “Rate of LC3-II formation in the presence of protease inhibitors (autophagic flux)” value ([8]; with 10 µg/mL E64D and pepstain A) was “increased the rate of LC3-II formation”.
